In US10738015B2, “1,3-diaza-spiro-[3.4]-octane derivatives” (priority 2017, dated 2020):
Like-named read-outs stand apart in the source and are kept apart here.

Key:
[1] = target: human nociceptin/orphanin FQ peptide (hNOP) receptor (Homo sapiens (Human), UniProt P41146); assay: hNOP receptor binding assay (SPA)
Description: Human Nociceptin/Orphanin FQ Peptide (hNOP) Receptor Binding Assay
The hNOP receptor binding assay was performed as homogeneous SPA-assay (scintillation proximity assay) using the assay buffer 50 mM TRIS-HCl, 10 mM MgCl2, 1 mM EDTA (pH 7.4). The final assay volume (250 μl/well) included 0.5 nM of [leucyl-^3H]nociceptin as ligand (PerkinElmer Life Sciences. Inc. Boston, Mass. USA) and either test compound in dilution series or 1 μM unlabelled nociceptin for determination of unspecific binding. The test compound was diluted with 25% DMSO in H2O to yield a final 0.5% DMSO concentration which also served as a respective vehicle control. The assay was started by adding wheat germ agglutinin coated SPA beads (GE Healthcare UK Ltd. Buckinghamshire. UK) which had been preloaded with hNOP receptor membranes (PerkinElmer Life Sciences. Inc. Boston, Mass. USA). After incubation for 60 minutes at RT and centrifugation for 20 minutes at 500 rpm the signal rate was measured by means of a 1450 Microbeta Trilux ß-counter (PerkinElmer Life Sciences/Wallac. Turku. Finland). Half-maximal inhibitory concentration (IC50) values reflecting 50% displacement of [^3H]nociceptin-specific receptor binding were calculated by nonlinear regression analysis and Ki values were calculated by using the Cheng-Prusoff equation. (Cheng and Prusoff. 1973).

[2] = target: human mu-opioid peptide (hMOP) receptor (Homo sapiens (Human), UniProt P35372); assay: hMOP receptor binding assay (SPA)
Chain of human mu-opioid peptide (hMOP) receptor (P35372 whole entry): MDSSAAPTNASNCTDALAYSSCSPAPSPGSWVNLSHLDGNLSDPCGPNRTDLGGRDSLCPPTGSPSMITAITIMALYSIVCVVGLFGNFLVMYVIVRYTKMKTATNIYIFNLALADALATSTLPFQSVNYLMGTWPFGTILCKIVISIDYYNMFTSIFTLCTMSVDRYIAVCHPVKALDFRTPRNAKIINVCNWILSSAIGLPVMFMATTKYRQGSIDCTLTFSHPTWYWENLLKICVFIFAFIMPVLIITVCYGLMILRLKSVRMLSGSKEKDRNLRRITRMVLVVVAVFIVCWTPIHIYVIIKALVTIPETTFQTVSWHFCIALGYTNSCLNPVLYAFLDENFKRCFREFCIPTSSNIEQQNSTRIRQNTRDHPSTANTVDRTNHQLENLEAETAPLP
Description: Human Mu-Opioidpeptide (hMOP) Receptor Binding Assay
The hMOP receptor binding assay was performed as homogeneous SPA-assay (scintillation proximity assay) using the assay buffer 50 mM TRIS-HCl (pH 7.4) supplemented with 0.052 mg/ml bovine serum albumin (Sigma-Aldrich Co. St. Louis, Mo.). […] The assay was started by adding wheat germ agglutinin coated SPA beads (GE Healthcare UK Ltd. Buckinghamshire. UK) which had been preloaded with hMOP receptor membranes (PerkinElmer Life Sciences. Inc. Boston, Mass. USA).

[3] = Ki, displacement of [3H]naloxone, hMOP receptor membranes, read-out: hMOP Ki [nM] or % inhibition at 1 μM
[4] = Ki, displacement of [leucyl-3H]nociceptin, hNOP receptor membranes, read-out: hNOP Ki [nM] or % inhibition at 1 μM

Structure (SMILES) | Ki [1] | Ki [2, 3] | Ki [1, 4] | Ki [2]
CN(C)[C@]1(c2cccc(F)c2)C[C@@]2(CN(CCS(C)(=O)=O)C(=O)N2CC2CC2)C1 [SC-31, cis-5-(cyclopropylmethyl)-2-(dimethylamino)-2-(3-fluorophenyl)-7-(2-(methylsulfonyl)ethyl)-5,7-diazaspiro[3.4]octan-6-one] | 15 nM | 150 nM | – | –
CN(C)[C@]1(c2ccccc2)C[C@@]2(CN(c3ccc(OC(F)(F)F)cn3)C(=O)N2CC2CC2)C1 [SC-32, Cis-5-(cyclopropylmethyl)-2-(dimethylamino)-2-phenyl-7-(5-(trifluoromethoxy)pyridin-2-yl)-5,7-diazaspiro[3.4]octan-6-one] | – | 100 nM | 36 nM | –
CN(C)[C@]1(c2cccc(F)c2)C[C@@]2(CN(CC3(F)COC3)C(=O)N2CC2CC2)C1 [SC-33, Cis-5-(cyclopropylmethyl)-2-(dimethylamino)-7-((3-fluorooxetan-3-yl)methyl)-2-(3-fluorophenyl)-5,7-diazaspiro[3.4]octan-6-one] | – | 115 nM | 23 nM | –
CN(C)[C@]1(c2ccccc2)C[C@@]2(CN(c3ccc(C4CC4)nc3)C(=O)N2CC2CC2)C1 [SC-34, Cis-5-(cyclopropylmethyl)-7-(6-cyclopropylpyridin-3-yl)-2-(dimethylamino)-2-phenyl-5,7-diazaspiro[3.4]octan-6-one] | – | 50 nM | 17 nM | –
Cc1cc(C2CC2)ncc1N1C[C@]2(C[C@](c3ccccc3)(N(C)C)C2)N(CC2CC2)C1=O [SC-35, Cis-7-(6-cyclopropyl-4-methylpyridin-3-yl)-5-(cyclopropylmethyl)-2-(dimethylamino)-2-phenyl-5,7-diazaspiro[3.4]octan-6-one] | – | 185 nM | 19 nM | –
Cc1cc(C2CC2)ncc1N1C[C@]2(C[C@](c3ccccc3)(N(C)C)C2)N(CC2(F)COC2)C1=O [SC-36, Cis-7-(6-cyclopropyl-4-methylpyridin-3-yl)-2-(dimethylamino)-5-((3-fluorooxetan-3-yl)methyl)-2-phenyl-5,7-diazaspiro[3.4]octan-6-one] | – | 330 nM | 10 nM | –
COC(C)(C)CN1C[C@]2(C[C@](c3cccc(F)c3)(N(C)C)C2)N(CC2CC2)C1=O [SC-37, Cis-5-(cyclopropylmethyl)-2-(dimethylamino)-2-(3-fluorophenyl)-7-(2-methoxy-2-methylpropyl)-5,7-diazaspiro[3.4]octan-6-one] | – | – | 37 nM | 44 nM
CN(C)[C@]1(c2ccccc2)C[C@@]2(CN(c3cncc(C(F)(F)F)c3)C(=O)N2CC2CC2)C1 [SC-39, Cis-5-(cyclopropylmethyl)-2-(dimethylamino)-2-phenyl-7-[5-(trifluoromethyl)pyridin-3-yl]-5,7-diazaspiro[3.4]octan-6-one] | – | 48 nM | 5 nM | –
CN(C)[C@]1(c2ccccc2)C[C@@]2(CN(c3cnc(C#N)c(C(F)(F)F)c3)C(=O)N2CC2CC2)C1 [SC-40, Cis-5-[5-(cyclopropylmethyl)-2-(dimethylamino)-6-oxo-2-phenyl-5,7-diazaspiro[3.4]octan-7-yl]-3-(trifluoromethyl)pyridine-2-carbonitrile] | – | 102 nM | 6 nM | –
CN(C)[C@]1(c2cccc(F)c2)C[C@@]2(CN(Cc3ccc(N4CCOCC4)cc3)C(=O)N2)C1 [SC-41, cis-2-(dimethylamino)-2-(3-fluorophenyl)-7-(4-morpholinobenzyl)-5,7-diazaspiro[3.4]octan-6-one] | 21 nM | 465 nM | – | –
CN(C)[C@]1(c2cccc(F)c2)C[C@@]2(CN(CC3(O)CCC3)C(=O)N2CC2CC2)C1 [SC-42, Cis-5-(cyclopropylmethyl)-2-(dimethylamino)-2-(3-fluorophenyl)-7-[(1-hydroxycyclobutyl)methyl]-5,7-diazaspiro[3.4]octan-6-one] | – | 125 nM | 21 nM | –
CN(C)[C@]1(c2ccccc2)C[C@@]2(CN(c3cnc(-c4ccncc4)nc3)C(=O)N2CC2CC2)C1 [SC-43, Cis-5-(cyclopropylmethyl)-2-(dimethylamino)-2-phenyl-7-(2-pyridin-4-ylpyrimidin-5-yl)-5,7-diazaspiro[3.4]octan-6-one] | – | 83 nM | 31 nM | –
CN(C)[C@]1(c2cccc(F)c2)C[C@@]2(CN(CCC#N)C(=O)N2CC2CC2)C1 [SC-44, cis-3-(5-(cyclopropylmethyl)-2-(dimethylamino)-2-(3-fluorophenyl)-6-oxo-5,7-diazaspiro[3.4]octan-7-yl)propanenitrile] | – | – | 15 nM | 110 nM
CN(C)[C@]1(c2ccccc2)C[C@@]2(CN(CCC#N)C(=O)N2CC2CC2)C1 [SC-45, Cis-3-[5-(cyclopropylmethyl)-2-(dimethylamino)-6-oxo-2-phenyl-5,7-diazaspiro[3.4]octan-7-yl]propanenitrile] | – | 37 nM | 25 nM | –
CN(C)[C@]1(c2ccccc2)C[C@@]2(CN(CC3(O)CCC3)C(=O)N2CC2CC2)C1 [SC-46, Cis-5-(cyclopropylmethyl)-2-(dimethylamino)-7-[(1-hydroxycyclobutyl)methyl]-2-phenyl-5,7-diazaspiro[3.4]octan-6-one] | – | 48 nM | 29 nM | –
CN(C)[C@]1(c2cccc(F)c2)C[C@@]2(CN(CCC3COC3)C(=O)N2CC2CC2)C1 [SC-47, Cis-5-(cyclopropylmethyl)-2-(dimethylamino)-2-(3-fluorophenyl)-7-[2-(oxetan-3-yl)ethyl]-5,7-diazaspiro[3.4]octan-6-one] | – | 44 nM | 9 nM | –
